Experimental data: patent publication US20230391772A1, “METHODS AND COMPOSITIONS FOR TARGETED PROTEIN DEGRADATION” (Ranok Therapeutics (Hangzhou) Co. Ltd., priority 2020, published 2023)

How the values were obtained:
HSP90a protein = molecular target: T1, HSP90a protein (Homo sapiens, UniProt P07900); assay: HSP90α-binding fluorescent polarization (FP) assay, BODIPY-labeled RNK04010 probe; conditions: FP competition with RNK04010 (BODIPY-labeled), 5 nM, 300 min at 25° C.
T1 construct: purchased BPS Bioscience 50298
Description: HSP90α-Binding Fluorescent Polarization (FP) Assay
Binding of test compounds to HSP90a protein was measured by fluorescent polarization (FP) using the HSP90a (N-terminal) Assay Kit (BPS Bioscience, #50298), following the manufacturer's instructions, except as noted. Fluorescently labeled HSP90-binding compounds, either the provided FITC-geldanamycin (5 nM final concentration) or RNK04010, a triazolone-based HSP90 binding small molecule labeled with BODIPY through a piperizine-phenyl linker (5 nM final concentration) were employed. A 2.5-fold serial dilution of each test compound ranging from 20 μM to 5.2 nM was assayed for binding to HSP90a. After the final step of adding HSP90a protein to each assay well, plates were mixed by brief shaking, incubated at 25° C. for 120 min for FITC-geldanamycin or 300 min for RNK04010, and fluorescence was measured using a PerkinElmer EnVision Plate Reader.

KRAS(G12C) = KRAS(G12C) (Homo sapiens, UniProt P01116, G12C); assay: KRAS(G12C)/SOS1 homogeneous time-resolved fluorescence (HTRF) assay; design: purchased Cisbio 63ADK000CB16PEG; conditions: absence of GTP, 4° C. for 3 hr, read-out: KRAS (G12C) binding
Sequence of KRAS(G12C) (P01116 1-188 isoform P01116-2 G12C): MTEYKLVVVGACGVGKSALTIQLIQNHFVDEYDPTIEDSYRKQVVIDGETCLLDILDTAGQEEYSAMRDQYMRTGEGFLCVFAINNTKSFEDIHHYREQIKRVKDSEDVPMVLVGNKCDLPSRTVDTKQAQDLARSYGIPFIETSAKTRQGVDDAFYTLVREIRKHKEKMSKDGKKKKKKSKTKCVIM
Description: KRAS(G12C)/SOS1 Homogeneous Time-Resolved Fluorescence (HTRF) Assay
Binding of test compounds to KRAS(G12C) protein, which in turn blocks KRAS(G12C) interaction with the SOS1 protein, was measured in the absences of GTP by homogeneous time-resolved fluorescence (HTRF) using the KRAS-G12C/SOS1 Binding Assay Kit (Cisbio, #63ADK000CB16PEG), following the manufacturer's instructions, except as noted. 3-fold serial dilutions of each test compound were prepared ranging from […] to 1.02 nM. The test compound was mixed and incubated with reaction components, incubated in a sealed plate at 4° C. for 3 hr and fluorescence was measured using a PerkinElmer Envision plate reader.

[1] = tested on: MIA PaCa-2 human pancreatic carcinoma; assay: MIA PaCa-2 CCK-8 proliferation assay; format: cell-based; conditions: Homo sapiens, MIA PaCa-2, 72 h, MIA PaCa-2 cells
Description: The following cancer cell lines were employed: BT-474 human breast carcinoma (ATCC, #HTB-20); MIA PaCa-2 human pancreatic carcinoma [2 copies KRAS(G12C)](ATCC, #CRL-1420); NCI-H23 human non-small cell lung cancer [1 copy KRAS(G12C)](ATCC, #CRL-5800); NCI-H358 human non-small cell lung cancer [1 copy KRAS(G12C)](ATCC, #CRL-5807); LU65A human lung carcinoma (Pharmaron, Beijing, China). Cell lines were cultured essentially according to ATCC and Pharmaron recommendations.
Cancer Cell Line Proliferation (CCK-8) Assays
3-fold serial dilutions of each test compound were prepared ranging from 20 μM to 1.02 nM.
% Inhibition=100−(D−B)/(S−B)*100%. • S: Absorbance of cells treated with DMSO • D: Absorbance of compound-treated cells • B: Absorbance of medium with DMSO without cells

Row | IC50 (HSP90a protein) [nM] | IC50 (KRAS(G12C)) [nM] | EC50 [1] [nM] | SMILES
1 | < 100 | < 100 | > 1000 | C=CC(=O)N1CCN(c2nc(OC[C@@H]3CC[C@H](C(=O)N4CCN(Cc5ccc(-n6c(O)nnc6-c6cc(C)c(O)cc6O)cc5)CC4)N3C)nc3c2CCN(c2cccc4cccc(Cl)c24)C3)C[C@@H]1CC#N [Compound 325, 2-[(2S)-4-[7-(8-chloronaphthalen-1-yl)-2-{[(2S,5R)-5-[4-({4-[3-(2,4-dihydroxy-5-methylphenyl)-5-hydroxy-1,2,4-triazol-4-yl]phenyl}methyl)piperazine-1-carbonyl]-1-methylpyrrolidin-2-yl]methoxy}-5H,6H,8H-pyrido[3,4-d]pyrimidin-4-yl]-1-(prop-2-enoyl)piperazin-2-yl]acetonitrile]
2 | < 100 | 100 to 1000 | > 1000 | C=CC(=O)N1CCN(c2nc(OC[C@@H]3CC[C@H](COC(=O)NCc4ccc(-n5c(O)nnc5-c5cc(CC)c(O)cc5O)cc4)N3C)nc3c2CCN(c2cccc4cccc(Cl)c24)C3)C[C@@H]1CC#N [Compound 296, ((2R,5S)-5-(((4-((S)-4-acryloyl-3-(cyanomethyl)piperazin-1-yl)-7-(8-chloronaphthalen-1-yl)-5,6,7,8-tetrahydropyrido[3,4-d]pyrimidin-2-yl)oxy)methyl)-1-methylpyrrolidin-2-yl)methyl4-(3-(5-ethyl-2,4-dihydroxyphenyl)-5-hydroxy-4H-1,2,4-triazol-4-yl)benzylcarbamate]
3 | 100 to 1000 | < 100 | > 1000 | C=CC(=O)N1CCN(c2nc(OCCN3CCC4(CC3)CCN(Cc3cc(C(C)C)c(O)cc3O)CC4)nc3c2CCN(c2cccc4cccc(Cl)c24)C3)C[C@@H]1CC#N [Compound 217, (S)-2-(1-acryloyl-4-(7-(8-chloronaphthalen-1-yl)-2-(2-(9-(2,4-dihydroxy-5-isopropylbenzyl)-3,9-diazaspiro[5.5]undecan-3-yl)ethoxy)-5,6,7,8-tetrahydropyrido[3,4-d]pyrimidin-4-yl)piperazin-2-yl)acetonitrile]
4 | < 100 | < 100 | 100 to 1000 | C=CC(=O)N1CCN(c2nc(OC[C@@H]3C[C@H](C(=O)N4CCN(Cc5ccc(-n6c(O)nnc6-c6cc(C(C)C)c(O)cc6O)cc5)CC4)CN3C)nc3c2CCN(c2cccc4cccc(Cl)c24)C3)C[C@@H]1CC#N [Compound 340, 2-[(2S)-4-[7-(8-chloronaphthalen-1-yl)-2-{[(2S,4S)-4-[4-({4-[3-(2,4-dihydroxy-5-isopropylphenyl)-5-hydroxy-1,2,4-triazol-4-yl]phenyl}methyl)piperazine-1-car-bonyl]-1-methylpyrrolidin-2-yl]methoxy}-5H,6H,8H-pyrido[3,4-d]pyrimidin-4-yl]-1-(prop-2-enoyl)piperazin-2-yl]acetonitrile]
5 | < 100 | < 100 | 100 to 1000 | C=CC(=O)N1CCN(c2nc(OC[C@H]3CC[C@@H](C(=O)N4CCN(C(=O)C5CCN(Cc6ccc(-n7c(O)nnc7-c7cc(C(C)C)c(O)cc7O)cc6)CC5)CC4)N3C)nc3c2CCN(c2cccc4cccc(Cl)c24)C3)C[C@@H]1CC#N [Compound 342, 2-[(2S)-4-[7-(8-chloronaphthalen-1-yl)-2-{[(2R,5S)-5-{4-[1-({4-[3-(2,4-dihydroxy-5-isopropylphenyl)-5-hydroxy-1,2,4-triazol-4-yl]phenyl}methyl)piperidine-4-carbonyl]piperazine-1-carbonyl}-1-methylpyrrolidin-2-yl]methoxy}-5H,6H,8H-pyri-do[3,4-d]pyrimidin-4-yl]-1-(prop-2-enoyl)piperazin-2-yl]acetonitrile]
6 | – | 100 to 1000 | 100 to 1000 | C=CC(=O)N1CCN(c2nc(OC[C@@H]3CCN3C(=O)C3CCN(Cc4ccc(-n5c(C(N)=O)nnc5-c5cc(C(C)C)c(O)cc5O)cc4)CC3)nc3c2CCN(c2cccc4cccc(Cl)c24)C3)C[C@@H]1CC#N [Compound 190, 4-(4-((4-((S)-2-(((4-((S)-4-acryloyl-3-(cyanomethyl)piperazin-1-yl)-7-(8-chloronaphthalen-1-yl)-5,6,7,8-tetrahydropyrido[3,4-d]pyrimidin-2-yl)oxy)methyl)azetidine-1-carbonyl)piperidin-1-yl)methyl)phenyl)-5-(2,4-dihydroxy-5-isopropylphenyl)-4H-1,2,4-triazole-3-carboxamide]

The remaining lines, values behind:

Row | SMILES | IC50 (HSP90a protein) [nM] | IC50 (KRAS(G12C)) [nM] | EC50 [1] [nM]
7 | C=CC(=O)N1CCN(c2nc(OC[C@@H]3C[C@@H](NC(=O)C4CCN(Cc5ccc(-n6c(C(N)=O)nnc6-c6cc(C(C)C)c(O)cc6O)cc5)CC4)CN3C)nc3c2CCN(c2cccc4cccc(Cl)c24)C3)C[C@@H]1CC#N [Compound 194, N-((3R,5S)-5-(((4-((S)-4-acryloyl-3-(cyanomethyl)piperazin-1-yl)-7-(8-chloronaphthalen-1-yl)-5,6,7,8-tetrahydropyrido[3,4-d]pyrimidin-2-yl)oxy)methyl)-1-methylpyrrolidin-3-yl)-1-(4-(3-carbamoyl-5-(2,4-dihydroxy-5-isopropylphenyl)-4H-1,2,4-triazol-4-yl)benzyl)piperidine-4-carboxamide] | < 100 | 100 to 1000 | 100 to 1000
8 | C=CC(=O)N1CCN(c2nc(OC[C@@H]3C[C@H](C(=O)NCCc4ccc(-n5c(O)nnc5-c5cc(C(C)C)c(O)cc5O)cc4)CN3C)nc3c2CCN(c2cccc4cccc(Cl)c24)C3)C[C@@H]1CC#N [Compound 345, (3S,5S)-5-({[7-(8-chloronaphthalen-1-yl)-4-[(3S)-3-(cyanomethyl)-4-(prop-2-enoyl)piperazin-1-yl]-5H,6H,8H-pyrido[3,4-d]pyrimidin-2-yl]oxy}methyl)-N-(2-{4-[3-(2,4-dihydroxy-5-isopropylphenyl)-5-hydroxy-1,2,4-triazol-4-yl]phenyl}ethyl)-1-methylpyrrolidine-3-carboxamide] | < 100 | < 100 | 100 to 1000
9 | C=CC(=O)N1CCN(c2nc(OC[C@@H]3C[C@H](NC(=O)C4CCN(C(=O)C5CCN(Cc6ccc(-n7c(C(=O)NCC(F)(F)F)nnc7-c7cc(C(C)C)c(O)cc7O)cc6)CC5)CC4)CN3C)nc3c2CCN(c2cccc4cccc(Cl)c24)C3)C[C@@H]1CC#N [Compound 307, N-[(3S,5S)-5-({[7-(8-chloronaphthalen-1-yl)-4-[(3S)-3-(cyanomethyl)-4-(prop-2-enoyl)piperazin-1-yl]-5H,6H,8H-pyrido[3,4-d]pyrimidin-2-yl]oxy}methyl)-1-methylpyrrolidin-3-yl]-1-[1-({4-[3-(2,4-dihydroxy-5-isopropylphenyl)-5-[(2,2,2-tri-fluoroethyl)carbamoyl]-1,2,4-triazol-4-yl]phenyl}methyl)piperidine-4-carbonyl]piperidine-4-carboxamide] | < 100 | < 100 | < 100
10 | C=CC(=O)N1CCN(c2nc(OC[C@@H]3C[C@H](N4CCC5(CCN(Cc6cc(C(C)C)c(O)cc6O)CC5)CC4)CN3C)nc3c2CCN(c2cccc4cccc(Cl)c24)C3)C[C@@H]1CC#N [Compound 338, 2-[(2S)-4-[7-(8-chloronaphthalen-1-yl)-2-{[(2S,4S)-4-{9-[(2,4-dihydroxy-5-isopropylphenyl)methyl]-3,9-diazaspiro[5.5]undecan-3-yl}-1-methylpyrrolidin-2-yl]methoxy}-5H,6H,8H-pyrido[3,4-d]pyrimidin-4-yl]-1-(prop-2-enoyl)piperazin-2-yl]acetonitrile] | 100 to 1000 | < 100 | > 1000
11 | C=CC(=O)N1CCN(c2nc(OCC3CCC(COCC(=O)N4CCN(Cc5ccc(-n6c(O)nnc6-c6cc(CC)c(O)cc6O)cc5)CC4)N3)nc3c2CCN(c2cccc4cccc(Cl)c24)C3)C[C@@H]1CC#N (stereo partly drawn) [Compound 297, 2-((2S)-1-acryloyl-4-(7-(8-chloronaphthalen-1-yl)-2-((5-((2-(4-(4-(3-(5-ethyl-2,4-dihydroxyphenyl)-5-hydroxy-4H-1,2,4-triazol-4-yl)benzyl)piperazin-1-yl)-2-oxoethoxy)methyl)pyrrolidin-2-yl)methoxy)-5,6,7,8-tetrahydropyrido[3,4-d]pyrimidin-4-yl)piperazin-2-yl)acetonitrile] | < 100 | > 1000 | > 1000
